Reference: patent US20220040253A1, “Agonists of Human Kisspeptin Receptor for Modulating Sexual Desire” (Université de Liège, priority 2019, published 2022)
“Also recorded” adds a separate entry of the source. No end group written: not given here.

How the values were obtained:
female mice [1] = experiment: Mate preference test (three-compartment box, preference score); assay type: in vivo, mouse
Description: (§1) Unless otherwise stated, females were ovariectomized in adulthood (>8 weeks of age) under general anesthesia after either subcutaneous (sc) injections of ketamine (80 mg kg^−1 per mouse) and medetomidine (Domitor, Pfizer, 1 mg kg^−1 per mouse) or under 5% isoflurane, in order to control for endogenous hormone concentrations and to prevent pregnancies upon repeated testing. At the same time, all females received a 5 mm-long Silastic capsule (inner diameter: 1.57 mm; outer diameter: 2.41 mm) containing crystalline 17β-estradiol (diluted 1:1 with cholesterol) subcutaneously in the neck. The dose of E2 (E8875, Sigma) was based on a previous study^62 showing that this treatment leads to estradiol levels similar to mice in estrus. At the end of surgery, females under ketamine/medetomidine anesthesia received a sc injection of atipamezole (Antisedan, Pfizer, 4 mg kg^−1 per mouse) to antagonize medetomidine-induced effects and accelerate recovery. In order to induce sexual receptivity at the day of testing, all females received a subcutaneous injection with progesterone (500 μg, P0130, Sigma) 3 h before the onset of the behavioral test, unless stated otherwise (for overview of all the different hormone treatments, see Table 1).
(§2) Kisspeptin-10 (Kp-10) was synthesized in Strasbourg, France (Sequence: Tyr-Asn-Trp-Asn-Ser-Phe-Gly-Leu-Arg-Tyr-NH2, NeoMPS; weight=25.7 mg). To determine whether kisspeptin stimulated female sexual behavior in wildtype C57BL/6J mice, females received a sc injection of Kp-10 at the dose of 0.52 μg kg^−1 (injection volume 100 μl) 2h before the lordosis test. Each animal was used as its own control, i.e. the animal was injected one day with Kp-10 and the other day with saline. Females were not injected with progesterone in this particular experiment. Injections were separated by at least 3 days.
Two hours before mate preference test, female mice received a single sc injection of GnRH (0.025 mg kg^−1, Polypeptide Laboratories France SAS, SC087).
S-nitroso-N-acetyl-DL-Penicillamine (SNAP) (N398-Sigma) is a NO donor. […]
To assess mate preferences shown in response to auditory and olfactory stimuli, we used a box (60 cm long×30 cm high×13 cm wide) that was divided into three compartments using perforated opaque partitions. […] The time the subject spent poking her nose through the holes of the partition or actively sniffing the bottom of the partition in front of the female versus male stimulus animal was recorded. A preference score was calculated by dividing the time spent investigating the male compartment minus the time spent investigating the female compartment by the total time spent investigating both compartments. […]

female mice [2] = experiment: Lordosis test without photostimulation (lordosis quotient); assay type: in vivo, mouse
Description: as §1, with “1). […]” for “1).”
as §2, with “days. […]” for “days.”
Females were subjected to weekly lordosis tests in a Plexiglas aquarium (37 cm long×17 cm high×21 cm wide). A sexually experienced male was placed alone in the aquarium and allowed to adapt for 15 min. Subsequently, 3 h after receiving a subcutaneous progesterone injection (500 μg, P0130, Sigma) to induce behavioral estrus, the lordosis responses of the female to the mounts of the stimulus male were recorded. The test lasted until the female received 10 mounts or 10 min had elapsed. For the first experiment (mating-induced Fos activation) ovary intact females were paired with males during 30 minutes. […] Before each experimental condition (drug injection, cell ablation, optogenetic stimulation), all females were subjected to at least three lordosis tests (with progesterone) in order to acquire sufficient sexual experience and thus a significant LQ. Tests were performed during the dark phase of the light cycle (5 h after lights out; for details, see^67). For all details on the different hormone treatments (estradiol versus estradiol+progesterone), see Table 1.

[3] = test system: human female patients diagnosed with HSDD; experiment: Brain activation by BOLD MRI while watching erotic pictures; assay type: in vivo; conditions: single sc injection 6.4 nmol/kg; scan 30 minutes after injection; versus saline session
Description: 20 human female patients diagnosed with HSDD receive either a single subcutaneous (sc) injection of kisspeptin-54 (SEQ ID NO: 17) at a dose of 6.4 nmol/kg of body weight or a sc injection of a saline (i.e. control). The sexual desire of the patients is measured by determining their brain activation using magnetic resonance imaging (MRI) with the blood-oxygenation-level-dependent (BOLD) technique to identify and quantify brain regions associated with visually evoked sexual arousal in women. All female patients are subjected to two sessions on separate days with at least 1 month in between the sessions to act as their own control. They receive in one session kisspeptin-54 and in the other one saline, the order will be randomized. Female patients are positioned into the MRI scanner 30 minutes after the sc injection and three dimensional images are taken of the brain when watching a series of erotic pictures as well as more neutral pictures to serve as control condition using an event-related design. The task is followed by an anatomical scan in which high resolution T1-weighted images are taken to determine the anatomical boundaries of the activation observed during the visual task.

[4] = test system: human female patients diagnosed with HSDD; experiment: Vaginal photoplethysmography (vaginal blood flow) while watching erotic or neutral images; assay type: in vivo; conditions: single sc injection 6.4 nmol/kg
Description: 20 human female patients diagnosed with HSDD receive either a single subcutaneous (sc) injection of kisspeptin-54 (SEQ ID NO: 17) at a dose of 6.4 nmol/kg of body weight or a sc injection of saline (i.e. control). The sexual desire of the patients is measured using vaginal photoplethysmography, which has been used to assess female genital arousal. It consists of a tampon-sized acrylic device containing a light emitting diode and a phototransistor to detect light to measure vaginal blood flow with increased sexual desire leading to increased vaginal blood flow. The sexual desire of the patients is scored starting 15 minutes after administration of sc kisspeptin or saline when watching either erotic images or neutral images. […] Any effects of kisspeptin on sexual desire disappear by 4 h after the injection.

GnRH: GnRH from Polypeptide Laboratories France SAS, SC087 (QHWSYGLRPG; Gonadoliberin-1; UniProt P01148 24-33, looked up) [reference compound]
male-directed preference (preference score) (female mice [1]; GnRH::Cre, Dicer loxP/loxP females (OVX+E), single sc injection 0.025 mg kg^-1, P=0.01, FIG. 9a): induced a male-directed preference; also recorded: restored this behavior
lordosis behavior (female mice [2]; Kiss-/- (OVX+E) females, single injection, P=0.65, FIG. 9c): failed to stimulate lordosis behavior
lordosis behavior (female mice [2]; nNOS-/- (OVX+E) females, sc injection, P=0.19, FIG. 11c): failed to restore lordosis behavior; also recorded: failed to stimulate lordosis behavior

Tyr-Asn-Trp-Asn-Ser-Phe-Gly-Leu-Arg-Tyr-NH2 (YNWNSFGLRY-NH2) [Kp-10, Kisspeptin-10 synthesized in Strasbourg (NeoMPS), the decapeptide injected in mice]
male-directed preference (preference score) (female mice [1]; GnRH::Cre, Dicer loxP/loxP females (OVX+E+P), sc injection, P=0.38, FIG. 9a): failed to elicit a male-directed preference
male-directed preference (preference score) (female mice [1]; Kiss-/- (OVX+E+P) females, single sc injection 0.52 μg kg^-1, P<0.001, FIG. 1b): induced a very strong preference for the male; also recorded: triggered a male-directed preference
male-directed preference (preference score) (female mice [1]; KissIC Cre+ females (OVX+E+P) after AAV-Casp3 ablation of RP3V kisspeptin neurons, single sc injection, P=0.041, FIG. 1e): induced a male-directed preference; also recorded: sufficient to induce a male-directed preference
lordosis behavior (female mice [2]; Kiss-/- (OVX+E+P) females with lordosis deficits, single sc injection, FIG. 4d): induced lordosis behavior; also recorded: could be reversed
lordosis behavior (female mice [2]; WT C57BL/6J OVX+E females (no progesterone), sc 0.52 μg/kg 2 h before test, P<0.001, FIG. 4b): robustly stimulated lordosis behavior
lordosis behavior (female mice [2]; WT C57Bl6 (OVX+E+P) females, intracerebroventricular 10.4 ng/kg 1 h before test, P=0.012, FIG. 6): stimulates lordosis behavior; also recorded: also stimulated lordosis behavior
lordosis behavior (female mice [2]; nNOS-/- (OVX+E+P) females, sc injection, P=0.56, FIG. 11c): failed to restore lordosis behavior
lordosis behavior (female mice [2]; nNOS-/- (OVX+E+P) females, sc injection, P=0.56, FIG. 11c, listed as KP-10): failed to stimulate lordosis behavior

kisspeptin-54: human kisspeptin-54, SEQ ID NO: 17, amino acids 68 to 121 of NP_002247.3 (GTSLSPPPESSGSPQQPGLSAPHSRQIPAPQGAVLVQREKDLPNYNWNSFGLRF; listed as Homo sapiens)
brain activation when watching the images (BOLD MRI) [3]: show increased brain activation
time by which effects on sexual desire disappear after the injection [4]: ≤ 4 h
vaginal blood flow when watching neutral images ([4]; scored from 15 minutes after administration): not when watching neutral images
vaginal blood flow when watching erotic images ([4]; scored from 15 minutes after administration, versus saline): show increased vaginal blood flow
